Patent publication US20230026808A1, “COMPOUNDS, COMPOSITIONS, AND METHODS FOR TREATING ISCHEMIA-REPERFUSION INJURY AND/OR LUNG INJURY” (YALE UNIVERSITY, priority 2019, published 2023)

What was measured:
Assay type in all cases: cell-based
[1] = tested on: primary cultured mouse lung endothelial cells; test: H2O2 on primary cultured mouse lung endothelial cells (TEER, AKT phosphorylation); settings: H2O2 at low concentrations
[2] = tested on: mouse pulmonary endothelial cells; test: TEER of mouse endothelial cells co-cultured with neutrophils; settings: fMLP-stimulated neutrophils; catalase 100 U/ml
Protocol: ECIS 8W10E+ arrays (Applied BioPhysics) were coated with 10 μg/ml of poly-D-lysine (PDL) and washed with sterile water. Complete EBM-2 media (300 μl) was added to each well for a quick impedance background check. Subsequently, immortalized mouse pulmonary endothelial cells were seeded in a density of 60,000 cells/well in 300 μl EBM-2 medium in the coated arrays and incubated them at 37° C. in a CO2 incubator. Electrical resistance of the cell layer was recorded continuously on an ECIS system (Applied BioPhysics) until a stable resistance of approximately 600-700 ohms was achieved, after which media were removed from wells and replaced with 100 μl of assay buffer (Hanks buffer with Ca^2+ and Mg^2+0.25% BSA). Cells were allowed to re-equilibrate at 37° C. for 2 hours, before 1 μl of SOD (60 U/ml), catalase (100 U/ml), or mock were added to wells for 30 min followed by addition of 50 μl of mouse neutrophils in assay buffer containing 5 μM fMLP. Data were collected real-time throughout the experiment. All ECIS measurements were analyzed at an AC frequency of 4 kHz, which was identified as the most sensitive frequency for this cell type by frequency scans along an entire frequency range (1 kHz-64 kHz). The TEER values were normalized against those co-cultured with WT neutrophils treated with mock.

[3] = tested on: mouse primary lung endothelial cells; test: Bi-layer co-culture of neutrophils with endothelial cells, AKT phosphorylation; settings: fMLP-stimulated neutrophils; SOD 60 U/ml, catalase 100 U/ml
Protocol: Mouse primary lung endothelial cells (MLEC) were first plated on the outside of the polycarbonate membrane (25,000 cells/cm^2) of the Transwell inserts (24-well type, 0.4-μm pore size, Corning, Inc. 353095), and placed upside down in the wells of the culture plate. After the cells had adhered, the Transwell inserts were inverted and reinserted into the wells of the plate. The medium was replaced 24 h after seeding with serum-free medium. SOD (60 U/ml), catalase (100 U/ml), or mock were added to the lower chambers 2 h later for 30 min. Mouse neutrophils stimulated with 5 μM fMLP were then plated on the top surface of the insert (6×10^6 cells/cm^2) for 30 min. At the end of the incubation period, neutrophils on the top side of the inserts were removed by cotton swabs, and endothelial cells on the other side of the inserts were lysed with SDS-PAGE sample buffer for Western analysis.

Compound	AKT phosphorylation [1]	trans-endothelial electrical resistance (TEER) [1]	difference in TEER between DKO and WT neutrophil co-culture [2]	phospho-AKT elevation by co-cultured MAP3K2/3 DKO neutrophils [3]
OO [H2O2]	stimulates AKT phosphorylation	enhanced trans-endothelial electrical resistance (TEER)		
catalase			abrogated	abrogated
